Assay results taken from ChEMBL document CHEMBL2151016, “Synthesis and in vitro antiproliferative activity of new 11-aminoalkylamino-substituted chromeno[2,3-b]indoles” (Eur J Med Chem, 2012).

Experiments:
[1] = test system: L6; test: Cytotoxicity against rat L6 cells; format: cell-based
[2] = test system: BALB/3T3; test: Ratio of IC50 for mouse BALB/3T3 cells to IC50 for human A549 cells
[3] = test system: A549; test: Cytotoxicity against human A549 cells after 72 hrs by SRB assay; details: A549, 72 h
[4] = test system: BALB/3T3; test: Cytotoxicity against mouse BALB/3T3 cells after 72 hrs by SRB assay; details: BALB/3T3, 72 h
[5] = test system: MV4-11; test: Cytotoxicity against human MV4-11 cells after 72 hrs by MTT assay; details: MV4-11, 72 h
[6] = test system: HCT-116; test: Cytotoxicity against human HCT116 cells after 72 hrs by SRB assay; details: HCT-116, 72 h
[7] = test system: A549; test: Ratio of IC50 for human A549 cells to IC50 for human HCT116 cells; format: functional
[8] = test system: BALB/3T3; test: Ratio of IC50 for mouse BALB/3T3 cells to IC50 for human HCT116 cells

COc1ccc2oc3nc4ccccc4c-3c(NCCCNC(=O)Nc3ccccc3)c2c1
IC50 [1]: 169 µM

COc1ccc2c(c1)c(NCCCNC(=O)Nc1ccccc1)c1c3ccccc3nc-1n2C
IC50 [1]: 2.7 µM

NCCCNc1c2c3ccccc3nc-2oc2ccccc12
Ratio IC50 [2]: 2
IC50 [3]: 4.26 µM
IC50 [4]: 13.4 µM
IC50 [5]: 1.02 µM
IC50 [6]: 5.7 µM

NCCCCNc1c2c3ccccc3nc-2oc2ccccc12
IC50 [3]: 3.9 µM
IC50 [4]: 12.1 µM
IC50 [5]: 0.76 µM
IC50 [6]: 7.2 µM

OCCCNc1c2c3ccccc3nc-2oc2ccccc12
IC50 [5]: 7.66 µM

CCN(CC)CCCC(C)Nc1c2c3ccccc3nc-2oc2ccccc12 (configuration not stated)
IC50 [5]: 6.02 µM

c1ccc2c3c(N4CCOCC4)c4ccccc4oc-3nc2c1
IC50 [5]: 9.2 µM

NCCCNc1c2c3ccccc3nc-2oc2ccc(Cl)cc12
Ratio IC50 [2]: 2
IC50 [3]: 5.59 µM
IC50 [4]: 10.1 µM
IC50 [5]: 0.86 µM
IC50 [6]: 3.28 µM

NCCCCNc1c2c3ccccc3nc-2oc2ccc(Cl)cc12
Ratio IC50 [2]: 2
IC50 [3]: 5.56 µM
IC50 [4]: 11 µM
IC50 [5]: 0.76 µM
Ratio IC50 [7]: 3
IC50 [6]: 2.03 µM

OCCCNc1c2c3ccccc3nc-2oc2ccc(Cl)cc12
IC50 [5]: > 30.6 µM

CCN(CC)CCCC(C)Nc1c2c3ccccc3nc-2oc2ccc(Cl)cc12 (configuration not stated)
IC50 [5]: 7 µM

Clc1ccc2oc3nc4ccccc4c-3c(N3CCOCC3)c2c1
IC50 [5]: > 29.5 µM

Clc1ccc2oc3nc4ccccc4c-3c(NCCc3c[nH]c4ccccc34)c2c1
IC50 [5]: 7.57 µM

C=CCNc1c2c3ccccc3nc-2oc2ccc(Cl)cc12
IC50 [5]: > 32.4 µM

CN1CCCN(c2c3c4ccccc4nc-3oc3ccc(Cl)cc23)CC1
IC50 [3]: 10.8 µM
IC50 [4]: 16.8 µM
IC50 [5]: 0.63 µM
IC50 [6]: 9.68 µM

NCCCNc1c2c3ccccc3nc-2oc2ccc(Br)cc12
IC50 [3]: 6.19 µM
IC50 [4]: 8.94 µM
IC50 [5]: 0.97 µM
IC50 [6]: 4.19 µM

NCCCCNc1c2c3ccccc3nc-2oc2ccc(Br)cc12
IC50 [3]: 7.36 µM
IC50 [4]: 9.55 µM
IC50 [5]: 0.72 µM
IC50 [6]: 6.74 µM

OCCCNc1c2c3ccccc3nc-2oc2ccc(Br)cc12
IC50 [5]: > 26.9 µM

CCN(CC)CCCC(C)Nc1c2c3ccccc3nc-2oc2ccc(Br)cc12 (configuration not stated)
IC50 [5]: 4.93 µM

Brc1ccc2oc3nc4ccccc4c-3c(N3CCOCC3)c2c1
IC50 [5]: 25.3 µM

COc1ccc2oc3nc4ccccc4c-3c(NCCCN)c2c1
IC50 [3]: 9.29 µM
Ratio IC50 [8]: 5
IC50 [4]: 6.87 µM
IC50 [5]: 0.12 µM
Ratio IC50 [7]: 5
IC50 [6]: 1.93 µM

COc1ccc2oc3nc4ccccc4c-3c(NCCCO)c2c1
IC50 [5]: 7.26 µM

CCN(CC)CCCC(C)Nc1c2c3ccccc3nc-2oc2ccc(OC)cc12 (configuration not stated)
IC50 [5]: 3.45 µM

COc1ccc2oc3nc4ccccc4c-3c(N3CCOCC3)c2c1
IC50 [3]: 10.6 µM
Ratio IC50 [8]: 5
IC50 [4]: 8.73 µM
IC50 [5]: 0.38 µM
Ratio IC50 [7]: 5
IC50 [6]: 1.7 µM

COc1ccc2oc3nc4ccccc4c-3c(NCCc3c[nH]c4ccccc34)c2c1
IC50 [5]: 3.04 µM

COc1ccc2oc3nc4ccccc4c-3c(Nc3ccccc3)c2c1
IC50 [5]: 4.35 µM

CS(=O)(=O)NCCCNc1c2c3ccccc3nc-2oc2ccccc12
IC50 [5]: 7.74 µM

O=S(=O)(NCCCNc1c2c3ccccc3nc-2oc2ccccc12)c1ccccc1
IC50 [5]: > 23.2 µM

O=S(=O)(NCCCNc1c2c3ccccc3nc-2oc2ccccc12)c1ccc2ccccc2c1
IC50 [5]: 2.41 µM

CS(=O)(=O)NCCCNc1c2c3ccccc3nc-2oc2ccc(Br)cc12
IC50 [5]: 6.22 µM

O=S(=O)(NCCCNc1c2c3ccccc3nc-2oc2ccc(Br)cc12)c1ccccc1
IC50 [5]: > 19.6 µM

O=S(=O)(NCCCNc1c2c3ccccc3nc-2oc2ccc(Br)cc12)c1ccc2ccccc2c1
IC50 [5]: 5.75 µM
